US9249155B2, “Thieno [2, 3-D] pyrimidine derivatives and their use to treat arrhythmia” (XENTION LIMITED, priority 2011, dated 2016)

Legend:
hKv1.5 = target: T1, hKv1.5 (Homo sapiens, UniProt P22460); experiment: Kv1.5 electrophysiology, whole cell patch clamp; format: cell-based; conditions: CHO stably transfected with hKv1.5, whole cell patch clamp, room temperature
T1 construct: expressed in transfected cells; host or cells: CHO
Experimental: The ability of the compounds of the invention to inhibit the Kv1.5 potassium channel was measured in an electrophysiology experiment, using recombinant cells expressing the channel of interest in a whole cell patch clamp experiment.
The external bathing solution contained (in mM): 150 NaCl, 10 KCl, 3 MgCl2, 1 CaCl2, HEPES, pH 7.4. Patch pipettes were filled with an electrode solution of composition (in mM): 160 KCl, 0.5 MgCl2, 10 HEPES, 1 EGTA, pH 7.2 with KOH.
Compounds were dissolved in DMSO (100%) and freshly made up in the external bather at the desired concentration (final DMSO concentration=0.1%). All experiments were conducted at room temperature.
For whole-cell patch-clamp studies cells (CHO stably transfected with hKv1.5) were seeded onto glass coverslips before recordings were made. Cells were seeded in sterile 30 mm Petri dishes at a density to enable isolated cells to be selected for patch clamp experiments. The dishes were stored in a humidified, gassed (5% CO2) incubator at 37° C. until use.
Whole-cell patch-clamp recordings of membrane currents were made following gigaohm seal formation between the patch electrode and the cell using HEKA EPC-9/10 amplifiers controlled by Pulse Software (Ver8.5x/8.6x, HEKA, Germany). Coverslips seeded with cells were placed in a recording chamber mounted on the stage of an inverted microscope. During the experiment the cell of interest was continuously superfused with bather solution delivered via a cannula placed in close proximity to the cell to enable control of the extracellular solution environment. Only those cells with a current>500 pA were used for experiments. […]
Electrophysiology voltage-step protocols and analysis of data was performed as follows. […] Mean currents during 75-95% of the depolarising step to 0 mV were analysed using Pulsefit software (v8.x, HEKA, Germany). […] The test substance was allowed to equilibrate during which time voltage protocol was repeatedly applied and recorded. Percentage inhibition of the current in the presence of test substance was calculated relative to the control pre-drug value.

T1 sequence (P22460 whole entry): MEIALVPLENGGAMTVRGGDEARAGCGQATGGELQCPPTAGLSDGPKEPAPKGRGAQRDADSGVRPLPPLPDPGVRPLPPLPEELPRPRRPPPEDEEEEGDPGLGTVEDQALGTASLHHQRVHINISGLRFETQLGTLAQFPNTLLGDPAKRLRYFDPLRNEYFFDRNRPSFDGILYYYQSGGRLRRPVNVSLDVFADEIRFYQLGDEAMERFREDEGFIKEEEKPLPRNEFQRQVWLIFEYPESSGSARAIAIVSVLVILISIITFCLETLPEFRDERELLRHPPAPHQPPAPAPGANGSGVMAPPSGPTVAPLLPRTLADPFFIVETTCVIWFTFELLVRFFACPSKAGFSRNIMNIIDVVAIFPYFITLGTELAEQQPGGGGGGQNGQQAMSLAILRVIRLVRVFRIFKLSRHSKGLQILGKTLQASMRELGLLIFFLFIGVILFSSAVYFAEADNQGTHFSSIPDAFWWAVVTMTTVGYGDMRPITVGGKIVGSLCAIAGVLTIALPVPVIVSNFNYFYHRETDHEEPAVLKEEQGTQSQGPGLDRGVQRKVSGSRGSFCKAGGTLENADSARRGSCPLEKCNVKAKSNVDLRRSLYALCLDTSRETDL

SMILES	melting point	IC50 (hKv1.5)
O=C(NCCO)[C@H]1CCCN(c2nc(NCc3ccccn3)c3c(-c4ccccc4)csc3n2)C1 [(S) enantiomer (Ib), (S)-1-{5-Phenyl-4-[(pyridin-2-ylmethyl)-amino]-thieno[2,3-d]pyrimidin-2-yl}-piperidine-3-carboxylic acid (2-hydroxy-ethyl)-amide]	61 to 65 °C	27 nM
O=C(NCCO)[C@@H]1CCCN(c2nc(NCc3ccccn3)c3c(-c4ccccc4)csc3n2)C1 [(R) enantiomer (Ic), (R)-1-{5-Phenyl-4-[(pyridin-2-ylmethyl)-amino]-thieno[2,3-d]pyrimidin-2-yl}-piperidine-3-carboxylic acid (2-hydroxy-ethyl)-amide]	71 to 76 °C	5 nM
O=C(NCCO)C1CCCN(c2nc(NCc3ccccn3)c3c(-c4ccccc4)csc3n2)C1 (racemic) [Racemate, 1-{5-Phenyl-4-[(pyridin-2-ylmethyl)-amino]-thieno[2,3-d]pyrimidin-2-yl}-piperidine-3carboxylic acid (2-hydroxy-ethyl)-amide]	190 to 194 °C	9 nM
